The test concerns the target CFTR (Homo sapiens, UniProt P13569). Put plainly: Membrane potential dye, Enteroid Assay A. The settings on record: for Ent. A Max Activity: chloride transport as % of triple combination control (Enteroid Assay A); for EC50: human enteroid cells, 18-24 hours, acute 10 μM forskolin and 300 nM ivacaftor, read-out: Ent. A EC50. It is filed as cell-based. In short, it runs like this: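 % Activity: chloride transport relative to a 3 μM/3 μM corrector pair plus 300 nM acute potentiator control. Primary human enteroid cells, 18-24 h compound exposure at 37 °C; membrane potential dye (methyl oxonol) fluorescence over 15 min after forskolin (10 μM)/IBMX (100 μM)/Compound III (300 nM) stimulation in chloride-free buffer.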

Where two headings read alike, the source gives them in different places.

Chain of CFTR (P13569 with tags, fused parts or gaps DEL508-508): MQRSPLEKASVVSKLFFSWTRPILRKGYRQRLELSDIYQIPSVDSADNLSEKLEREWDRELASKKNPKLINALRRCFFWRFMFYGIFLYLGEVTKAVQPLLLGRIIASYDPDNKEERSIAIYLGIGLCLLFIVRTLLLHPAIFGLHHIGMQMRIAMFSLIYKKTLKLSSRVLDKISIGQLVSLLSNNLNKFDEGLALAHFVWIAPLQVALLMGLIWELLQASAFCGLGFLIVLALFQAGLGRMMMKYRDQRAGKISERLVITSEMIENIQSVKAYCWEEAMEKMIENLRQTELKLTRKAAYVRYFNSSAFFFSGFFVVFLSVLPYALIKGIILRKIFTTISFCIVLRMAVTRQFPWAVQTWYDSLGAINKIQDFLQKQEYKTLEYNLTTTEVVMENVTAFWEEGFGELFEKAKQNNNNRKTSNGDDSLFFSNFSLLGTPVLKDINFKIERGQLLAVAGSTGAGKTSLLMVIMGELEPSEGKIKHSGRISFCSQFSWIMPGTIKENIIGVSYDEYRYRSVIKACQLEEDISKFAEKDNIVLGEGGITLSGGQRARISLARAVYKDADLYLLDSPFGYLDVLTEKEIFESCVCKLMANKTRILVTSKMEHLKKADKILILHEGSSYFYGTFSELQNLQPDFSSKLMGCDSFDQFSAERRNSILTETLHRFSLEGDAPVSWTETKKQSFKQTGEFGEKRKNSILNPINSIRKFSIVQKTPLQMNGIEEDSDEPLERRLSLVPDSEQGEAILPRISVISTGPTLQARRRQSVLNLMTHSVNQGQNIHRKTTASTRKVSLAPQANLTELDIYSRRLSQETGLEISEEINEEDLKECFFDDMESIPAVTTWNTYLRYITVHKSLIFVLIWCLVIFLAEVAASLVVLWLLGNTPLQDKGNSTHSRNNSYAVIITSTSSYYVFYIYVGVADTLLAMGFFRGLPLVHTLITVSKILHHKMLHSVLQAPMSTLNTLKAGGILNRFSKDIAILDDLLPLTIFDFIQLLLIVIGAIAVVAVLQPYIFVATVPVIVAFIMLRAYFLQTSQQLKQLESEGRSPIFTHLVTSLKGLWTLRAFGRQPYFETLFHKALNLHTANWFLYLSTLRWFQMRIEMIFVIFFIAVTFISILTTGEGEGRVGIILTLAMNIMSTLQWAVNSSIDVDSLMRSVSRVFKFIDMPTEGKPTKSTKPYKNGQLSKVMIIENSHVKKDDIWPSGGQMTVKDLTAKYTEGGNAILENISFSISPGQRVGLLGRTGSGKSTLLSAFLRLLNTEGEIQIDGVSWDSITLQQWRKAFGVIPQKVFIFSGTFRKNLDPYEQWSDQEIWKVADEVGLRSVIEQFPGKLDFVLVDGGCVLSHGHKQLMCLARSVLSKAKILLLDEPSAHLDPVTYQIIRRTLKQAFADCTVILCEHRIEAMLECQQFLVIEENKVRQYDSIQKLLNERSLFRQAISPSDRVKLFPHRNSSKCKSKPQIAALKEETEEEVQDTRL

In general, EC50 refers to the concentration that produces a half-maximal response. For `Cc1cccc(C)c1-c1cc2nc(n1)NS(=O)(=O)c1cccc(c1)C(=O)N(Cc1ccc(N3CCC4(CC3)COC4)nc1)[C@H](CC(C)C)CO2` [Compound 965], where the note is “Table 7”, the “Ent. A Max Activity” value is on record as “+++ (+++ is >60%)” and the 50% effective concentration (EC50) was under 1000 nM. As to `Cc1cccc(C)c1-c1cc2nc(n1)NS(=O)(=O)c1cccc(c1)C(=O)N(Cc1ccc(N3CCC(O)CC3)nc1)[C@H](CC(C)C)CO2` [Compound 966], where the note is “Table 7”, the “Ent. A Max Activity” value was “+++ (+++ is >60%)” and the EC50 was under 1000 nM. Take `Cc1cccc(C)c1-c1cc2nc(n1)NS(=O)(=O)c1cccc(c1)C(=O)N(Cc1ccc(C3=CCN(C)CC3)nc1)[C@H](CC(C)C)CO2` [Compound 967]: the EC50 (Table 7) is under 1000 nM. Consider `Cc1cccc(C)c1-c1cc2nc(n1)NS(=O)(=O)c1cccc(c1)C(=O)N(Cc1ccc(N3CCC(C(F)(F)F)CC3)nc1)[C@H](CC(C)C)CO2` [Compound 969], for which, where the note is “Table 7”, the “Ent. A Max Activity” value is “++ (++ is 30-60%)” and the EC50 is under 1000 nM. The matching figures for `COCC1CCN(c2ccc(CN3C(=O)c4cccc(c4)S(=O)(=O)Nc4nc(cc(-c5c(C)cccc5C)n4)OC[C@H]3CC(C)C)cn2)CC1` [Compound 970]: “++ (++ is 30-60%)” and under 1000 nM.

In the case of `COC1CCN(c2ccc(CN3C(=O)c4cccc(c4)S(=O)(=O)Nc4nc(cc(-c5c(C)cccc5C)n4)OC[C@H]3CC(C)C)cn2)CC1` [Compound 971], for the setting “Table 7”, the “Ent. A Max Activity” value is “+++ (+++ is >60%)” and the EC50 was under 1000 nM. The matching figures for `Cc1cccc(C)c1-c1cc2nc(n1)NS(=O)(=O)c1cccc(c1)C(=O)N(Cc1ccc(N3CCC(C#N)CC3)nc1)[C@H](CC(C)C)CO2` [Compound 972]: “+++ (+++ is >60%)” and under 1000 nM. The matching figures for `Cc1cccc(C)c1-c1cc2nc(n1)NS(=O)(=O)c1cccc(c1)C(=O)N(Cc1ccc(N3CCC(F)CC3)nc1)[C@H](CC(C)C)CO2` [Compound 973]: “+++ (+++ is >60%)” and under 1000 nM. Take `Cc1cccc(C)c1-c1cc2nc(n1)NS(=O)(=O)c1cccc(c1)C(=O)N(Cc1ccc(N3CCOCC3)nc1)[C@H](CC(C)C)CO2` [Compound 976]: where the note is “Table 6”, the “Ent. A Max Activity” value is recorded as “+++ (+++ is >60%)” and the EC50 was under 1000 nM. The matching figures for `Cc1cccc(C)c1-c1cc2nc(n1)NS(=O)(=O)c1cccc(c1)C(=O)N(Cc1ccncc1)CCO2` [Compound 977]: “+++ (+++ is >60%)” and 3000 to 30000 nM. The like results for `Cc1cccc(C)c1-c1cc2nc(n1)NS(=O)(=O)c1cccc(c1)C(=O)N(Cc1ccccc1)CCO2` [Compound 978] were, in that order, “+++ (+++ is >60%)” and under 1000 nM. As to `Cc1cccc(C)c1-c1cc2nc(n1)NS(=O)(=O)c1cccc(c1)C(=O)N(C)CCO2` [Compound 979], under “Table 6”, the “Ent. A Max Activity” value was “+ (+ is <30%)”. `Cc1cccc(C)c1-c1cc2nc(n1)NS(=O)(=O)c1cccc(c1)C(=O)N(Cc1ccc(C(=O)N(C)C)nc1)[C@H](CC(C)C)CO2` [Compound 981]: under “Table 7”, the “Ent. A Max Activity” value is recorded as “+++ (+++ is >60%)” and the EC50 is under 1000 nM. Consider `Cc1cccc(C)c1-c1cc2nc(n1)NS(=O)(=O)c1cccc(c1)C(=O)N(CCC1CCOCC1)[C@H](CC(F)(F)F)CO2` [Compound 982], for which, under “Table 7”, the “Ent. A Max Activity” value is reported as “++ (++ is 30-60%)” and the EC50 lay within 1000 to 3000 nM. The like results for `Cc1cccc(C)c1-c1cc2nc(n1)NS(=O)(=O)c1cccc(c1)C(=O)N(CCC1CCOCC1)[C@H](CC(F)(F)F)CO2` [Compound 983] were, in that order, “++ (++ is 30-60%)” and under 1000 nM.

For `Cc1cccc(C)c1-c1cc2nc(n1)NS(=O)(=O)c1cccc(c1)C(=O)N(CCC(C)(C)C)[C@H](CC(F)(F)F)CO2` [Compound 984], under “Table 7”, the “Ent. A Max Activity” value is “++ (++ is 30-60%)” and the EC50 fell in the range of 1000 to 3000 nM.

For `Cc1cccc(C)c1-c1cc2nc(n1)NS(=O)(=O)c1cccc(c1)C(=O)N(CCC(C)(C)C)[C@H](CC(F)(F)F)CO2` [Compound 985], where the note is “Table 7”, the “Ent. A Max Activity” value is given as “++ (++ is 30-60%)” and the EC50 was under 1000 nM.

The values are drawn from patent publication US20240150377A1, “MODULATORS OF CYSTIC FIBROSIS TRANSMEMBRANE CONDUCTANCE REGULATOR” (VERTEX PHARMACEUTICALS INCORPORATED, priority 2020, published 2024).
